Experiments:
[1] = Unbound volume of distribution in Beagle dog; assay type: ADME, Canis lupus familiaris; conditions: in vivo
[2] = Inhibition of adenosine transporter in human HeLa cells assessed as reduction in [3H]adenosine uptake preincubated for 30 mins followed by [3H]adenosine addition and measured after 60 mins; assay type: cell-based
[3] = Volume of distribution in Beagle dog; assay type: ADME, Canis lupus familiaris; conditions: in vivo
[4] = Half-life in Wistar Han rat; assay type: ADME; conditions: in vivo
[5] = Unbound volume of distribution in Wistar Han rat; assay type: ADME; conditions: in vivo
[6] = target: PI3-kinase p110-delta/p85-alpha (Homo sapiens, UniProt O00329); assay: Inhibition of N-terminal His6-tagged recombinant full length human p110delta/untagged recombinant full length human p85alpha expressed in baculovirus infected Sf21 insect cells using PIP2 as substrate preincubated for 15 mins followed by substrate addition and measured after 1 hr by HTRF assay
PI3-kinase p110-delta/p85-alpha, sequence (P27986 whole entry, one chain of several): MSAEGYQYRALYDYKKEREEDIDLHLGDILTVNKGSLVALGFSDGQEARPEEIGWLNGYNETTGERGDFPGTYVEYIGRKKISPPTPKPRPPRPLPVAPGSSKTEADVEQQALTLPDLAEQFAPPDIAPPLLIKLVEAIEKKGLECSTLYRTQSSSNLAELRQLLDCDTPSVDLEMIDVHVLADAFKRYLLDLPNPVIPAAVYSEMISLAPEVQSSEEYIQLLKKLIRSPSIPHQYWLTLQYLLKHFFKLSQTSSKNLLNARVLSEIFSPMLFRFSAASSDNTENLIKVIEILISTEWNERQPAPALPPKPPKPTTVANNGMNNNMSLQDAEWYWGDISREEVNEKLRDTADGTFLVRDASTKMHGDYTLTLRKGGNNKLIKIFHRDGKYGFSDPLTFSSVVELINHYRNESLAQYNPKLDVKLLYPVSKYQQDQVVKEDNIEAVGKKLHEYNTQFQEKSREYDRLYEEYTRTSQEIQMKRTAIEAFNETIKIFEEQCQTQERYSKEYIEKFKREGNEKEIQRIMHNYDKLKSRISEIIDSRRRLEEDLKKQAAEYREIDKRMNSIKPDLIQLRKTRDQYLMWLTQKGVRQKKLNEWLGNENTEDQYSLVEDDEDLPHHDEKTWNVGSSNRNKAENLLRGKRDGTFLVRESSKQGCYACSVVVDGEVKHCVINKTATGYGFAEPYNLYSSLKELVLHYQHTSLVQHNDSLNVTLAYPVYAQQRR

[7] = Intrinsic clearance in Wistar Han rat at 0.05 mg/kg, iv or 1 mg/kg, po; assay type: ADME, organism-based; conditions: in vivo
[8] = Intrinsic clearance in Beagle dog at 0.05 mg/kg; assay type: ADME, organism-based, Canis lupus familiaris; conditions: in vivo
[9] = Plasma clearance in Wistar Han rat at 0.05 mg/kg, iv or 1 mg/kg, po; assay type: ADME, organism-based
[10] = Lipophilicity, log D of the compound by HPLC analysis; assay type: physicochemical
[11] = Volume of distribution in Wistar Han rat; assay type: ADME; conditions: in vivo
[12] = Plasma clearance in Beagle dog at 0.05 mg/kg; assay type: ADME, organism-based, Canis lupus familiaris
[13] = Half-life in Beagle dog; assay type: ADME, Canis lupus familiaris; conditions: in vivo
[14] = target: T1, Phosphatidylinositol 4,5-bisphosphate 3-kinase catalytic subunit delta isoform (Homo sapiens, UniProt O00329); assay: Inhibition of PI3Kdelta in human Ramos cells assessed as reduction in anti-IgM-antibody-induced phosphorylation of AKT at Ser473 residue preincubated for 20 mins followed by anti-IgM antibody stimulation and measured after 30 mins by alphascreen assay; assay type: cell-based
T1 sequence (O00329 whole entry): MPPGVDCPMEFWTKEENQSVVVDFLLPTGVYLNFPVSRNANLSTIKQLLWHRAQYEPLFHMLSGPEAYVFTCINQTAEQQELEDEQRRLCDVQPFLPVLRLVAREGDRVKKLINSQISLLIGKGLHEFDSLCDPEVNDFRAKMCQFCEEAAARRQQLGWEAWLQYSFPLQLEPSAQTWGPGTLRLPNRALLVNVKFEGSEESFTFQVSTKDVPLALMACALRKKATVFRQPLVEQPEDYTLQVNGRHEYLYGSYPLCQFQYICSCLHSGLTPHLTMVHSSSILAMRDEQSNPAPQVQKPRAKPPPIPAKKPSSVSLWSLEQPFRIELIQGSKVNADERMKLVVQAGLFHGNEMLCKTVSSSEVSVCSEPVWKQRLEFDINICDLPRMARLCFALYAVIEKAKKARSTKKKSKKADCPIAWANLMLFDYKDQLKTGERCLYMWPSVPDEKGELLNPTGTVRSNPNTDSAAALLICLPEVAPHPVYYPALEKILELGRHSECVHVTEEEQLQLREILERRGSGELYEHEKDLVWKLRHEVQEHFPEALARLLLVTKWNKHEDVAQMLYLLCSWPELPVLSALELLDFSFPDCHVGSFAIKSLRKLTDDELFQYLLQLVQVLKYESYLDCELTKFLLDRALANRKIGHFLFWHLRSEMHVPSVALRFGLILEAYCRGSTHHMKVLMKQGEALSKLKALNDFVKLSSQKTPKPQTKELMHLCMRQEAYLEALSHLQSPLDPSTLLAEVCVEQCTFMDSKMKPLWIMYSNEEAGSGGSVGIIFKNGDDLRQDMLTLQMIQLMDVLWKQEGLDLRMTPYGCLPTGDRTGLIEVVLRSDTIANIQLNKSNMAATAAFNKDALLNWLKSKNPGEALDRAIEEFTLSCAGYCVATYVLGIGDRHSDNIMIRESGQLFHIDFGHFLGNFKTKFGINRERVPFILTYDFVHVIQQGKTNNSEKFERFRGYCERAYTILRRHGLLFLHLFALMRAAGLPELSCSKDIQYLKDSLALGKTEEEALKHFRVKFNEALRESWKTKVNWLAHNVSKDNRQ

[15] = target: T1, Phosphatidylinositol 4,5-bisphosphate 3-kinase catalytic subunit delta isoform; assay: Inhibition of PI3Kdelta in human whole blood assessed as reduction in anti-CD79b antibody-induced CD69 expression preincubated for 60 mins followed by anti-CD79b antibody stimulation and measured after 3 hrs by FACS analysis; assay type: tissue-based
[16] = Plasma clearance in Wistar Han rat at 0.5 mg/kg, iv or 1 mg/kg, po; assay type: ADME, organism-based
[17] = Oral bioavailability in Wistar Han rat; assay type: ADME, organism-based; conditions: in vivo
[18] = Intrinsic clearance in Wistar Han rat at 0.5 mg/kg, iv or 1 mg/kg, po; assay type: ADME, organism-based; conditions: in vivo
[19] = Apparent permeability in pig LLC-PK1 cells; assay type: ADME, cell-based, Sus scrofa
[20] = Plasma clearance in Beagle dog at 0.25 mg/kg, iv or 0.5 mg/kg, po; assay type: ADME, organism-based, Canis lupus familiaris
[21] = Oral bioavailability in Beagle dog; assay type: ADME, organism-based, Canis lupus familiaris; conditions: in vivo
[22] = Intrinsic clearance in Beagle dog at 0.25 mg/kg, iv or 0.5 mg/kg, po; assay type: ADME, organism-based, Canis lupus familiaris; conditions: in vivo

| Vdu [1] [L/kg] | IC50 [2] [µM] | Vd [3] [L/kg] | half-life [4] [h] | Vdu [5] [L/kg] | IC50 [6] [µM] | CL [7] [mL/min/kg] | CL [8] [mL/min/kg] | clearance [9] [mL/min/kg] | logD [10] | Vd [11] [L/kg] | clearance [12] [mL/min/kg] | half-life [13] [h] | IC50 [14] [µM] | clearance [16] [mL/min/kg] | bioavailability [17] [%] | CL [18] [mL/min/kg] | SMILES | other results |
| --- | --- | --- | --- | --- | --- | --- | --- | --- | --- | --- | --- | --- | --- | --- | --- | --- | --- | --- |
| 1.4 | 7.7 | 1 | 0.3 | 4 | 0.0012 | 270 | 27 | 28 | 1.3 | 0.6 | 12 | 1.1 | 0.014 | – | – | – | CCn1c(-c2cnc(C)nc2)nc2c(O[C@H]3CCN(C(=O)C4CCC4)C3)ncnc21 | – |
| 2.5 | 9.9 | 1.4 | 1.4 | 3 | 0.0038 | 28 | 170 | 6 | 1.5 | 0.5 | 23 | 0.8 | 0.032 | – | – | – | CCn1c(-c2cnc(C)nc2)nc2c(O[C@H]3CCN(C(=O)C4CC(F)(F)C4)C3)ncnc21 | IC50 [15]: 0.084 µM |
| – | 3.8 | – | 0.4 | 18 | 0.0022 | 760 | – | 26 | 1.5 | 0.9 | – | – | 0.013 | – | – | – | CCn1c(-c2cnc(C)nc2)nc2c(N[C@H]3CCN(C(=O)C4CC(F)(F)C4)C3)ncnc21 | – |
| 1.9 | > 10 | 1.5 | 1.5 | 3.6 | 0.0019 | – | 9 | – | 0.7 | 1 | 5.5 | 2.7 | 0.042 | 21 | 61 | 100 | CCC(=O)N1CC[C@H](Nc2ncnc3c2nc(-c2cnc(C)nc2)n3CC)C1 | Papp [19]: 21 ×10⁻⁶ cm/s |
| 3.9 | 1.2 | 1.2 | 1.2 | 8.8 | 0.0017 | – | 22 | – | 2 | 0.4 | 5.6 | 3.1 | 0.012 | 4.7 | 36 | 104 | CCn1c(-c2ccc(C(F)(F)F)nc2)nc2c(N[C@H]3CCN(C(=O)C4CC4)C3)ncnc21 | – |
| – | – | – | 0.7 | 6.1 | – | 150 | – | 13 | 0.6 | 0.6 | – | – | 0.082 | – | – | – | CCn1c(-c2cnc(C)nc2)nc2c(N[C@H]3CCN(C(=O)c4cocn4)C3)ncnc21 | – |
| 0.9 | > 10 | 0.7 | 1.4 | 0.9 | 0.006 | 12 | 4.2 | 6.2 | 0.7 | 0.5 | 3 | 3.8 | – | – | – | – | CCn1c(-c2cnc(C)nc2)nc2c(O[C@H]3CCN(C(=O)C4CCOC4)C3)ncnc21 (stereo not given in full) | – |
| 2.7 | > 10 | 1.9 | 1.2 | 2.4 | – | 31 | 11 | 12 | 0.8 | 1.2 | 6.1 | 3.9 | – | – | – | – | CCC(=O)N1CC[C@H](Oc2ncnc3c2nc(-c2cnc(C)nc2)n3CC)C1 | Papp [19]: 21 ×10⁻⁶ cm/s |
| – | > 10 | – | 0.6 | 2.3 | 0.0016 | 74 | – | 18 | 0.6 | 0.7 | – | – | – | – | – | – | CCn1c(-c2cnc(C)nc2)nc2c(N[C@H]3CCN(C(=O)C4CCOC4)C3)ncnc21 (stereo not given in full) | – |
| – | 5.6 | – | 0.7 | 8.3 | 0.0051 | 240 | – | 15 | 2.3 | 0.7 | – | – | 0.049 | – | – | – | CCn1c(-c2ccc(C(F)(F)F)nc2)nc2c(O[C@H]3CCN(C(=O)C4CC4)C3)ncnc21 | – |
| 2.3 | 8.7 | 1.4 | 1.7 | 2.1 | 0.0033 | – | 32 | – | 0.9 | 0.4 | 12 | 1.2 | 0.063 | 4 | 75 | 25 | CCn1c(-c2cnc(C)nc2)nc2c(O[C@H]3CCN(C(=O)N4CC(OC)C4)C3)ncnc21 | – |
| 0.9 | > 10 | 0.6 | 1.8 | 2.5 | 0.0028 | – | – | – | 1 | 0.5 | – | 3.6 | 0.11 | 3.8 | 37 | 19 | CCn1c(-c2cnc(C)nc2)nc2c(O[C@H]3CCN(C(=O)[C@H]4C[C@@H](OC)C4)C3)ncnc21 | clearance [20]: 2.1 mL/min/kg; bioavailability [21]: 80%; Papp [19]: 18 ×10⁻⁶ cm/s; IC50 [15]: 0.075 µM; CL [22]: 3.3 mL/min/kg |
| 1.6 | 3.2 | 0.9 | 2.3 | 3.6 | 0.0041 | – | – | – | 1.9 | 0.2 | – | 3.6 | 0.11 | 1.2 | 58 | 19 | CCn1c(-c2ccc(C(F)(F)F)nc2)nc2c(O[C@H]3CCN(C(=O)C4CCOC4)C3)ncnc21 (stereo not given in full) | clearance [20]: 3.4 mL/min/kg; bioavailability [21]: 100%; Papp [19]: 27 ×10⁻⁶ cm/s; IC50 [15]: 0.1 µM; CL [22]: 6 mL/min/kg |
| 1.1 | > 10 | 0.8 | 1.4 | 1.5 | 0.013 | – | 7 | – | 0.8 | 0.8 | 4.3 | 1.9 | 0.39 | 14 | 31 | 37 | CCn1c(-c2cnc(C)nc2)nc2c(O[C@H]3CCN(C(=O)C4CCOCC4)C3)ncnc21 | – |
